Reference: patent US20090156545A1, “Substituted Phosphate Esters of Nucleoside Phosphonates” (priority 2005, published 2009)
Where two headings read alike, the source gives them in different places.

Assays:
Assay type in all cases: cell-based
Cowpox Brighton = assay: organism not typed; settings: read-out: Cowpox, 50% effective concentration, EC50
Vaccinia WR = assay: microbe, parasite or virus in culture; settings: read-out: Vaccinia, 50% effective concentration, EC50
HCMV AD169 = HCMV AD169 plaque reduction assay in HFF cells
HSV-1 [1] = assay: HSV-1 DNA reduction assay in MRC-5 cells
MCMV = MCMV plaque reduction assay in HFF cells; settings: read-out: MCMV, 50% effective concentration, EC50
HSV-1 [2] = assay: HSV-1 plaque reduction assay
HSV-2 = HSV-2 plaque reduction assay
HIV-1Lai = HIV-1Lai p24 reduction assay in MT-2 cells
[3] = read-out: HCMV, 50% effective concentration, EC50
[4] = read-out: HSV-1, 50% effective concentration, EC50

| Molecule | EC50 (Cowpox Brighton) [nM] | EC50 (Vaccinia WR) [nM] | EC50 (HCMV AD169; [3]) [nM] | EC50 (HSV-1 [1]; [4]) [nM] | EC50 (MCMV) [nM] | further results |
| --- | --- | --- | --- | --- | --- | --- |
| CCCCCCCCCCCCCCCCCCOCCOP(=O)(O)OP(=O)(O)CO[C@H](CO)Cn1ccc(N)nc1=O [ODE-phospho-HPMPC] | 540 | 320 | 4 | 0.02 | 30 | – |
| Nc1ccn(C[C@@H](CO)OCP(=O)(O)O)c(=O)n1 [HPMPC, (S)-9-[3-hydroxy-2-(phosphonomethoxy)-propyl]cytosine, reference compound] | – | – | – | – | 40 | EC50 (Cowpox Brighton; HFF): 42000 nM; EC50 (Vaccinia WR; Orthopoxvirus vaccinia, HFF): 31000 nM; EC50 (HSV-1 [2]; Human alphaherpesvirus 1, read-out: HSV-1, 50% effective concentration, EC50): 15000 nM; EC50 (HSV-2; Human alphaherpesvirus 2, read-out: HSV-2, 50% effective concentration, EC50): 10500 nM; EC50 (HCMV AD169; Human betaherpesvirus 5, read-out: HCMV, 50% effective concentration, EC50): 1200 nM; EC50 (HSV-1 [1]; Human alphaherpesvirus 1, MRC5, read-out: HSV-1, 50% effective concentration, EC50): 3300 nM |
| Nc1ncnc2c1ncn2CCOCP(=O)(O)O [ADV, phosphonomethoxyethyadenine, reference compound] | – | – | – | – | – | EC50 (HIV-1Lai; Human immunodeficiency virus 1, MT2, read-out: HIV-1, 50% effective concentration, EC50): 1300 nM |
| (2-(6amino-9H-purin-9-yl)ethoxy)methylphosphonic(3-hexadecyloxy)propylphosphonic)anhydride [HDP-phospho-ADV] | – | – | – | – | – | EC50 (HIV-1Lai; read-out: HIV-1, 50% effective concentration, EC50): 9 nM |
| (1-(4-aminooxopyrimidin-1(2H)-yl)-3-hydroxypropan-2-yloxy)methylphosphonic(3-hexadecyloxy)propylphosphoric) anhydride [HDP-phospho-HPMPC] | 3900 | 2800 | 100 | 60 | 350 | EC50 (HSV-1 [2]; [4]): 130 nM; EC50 (HSV-2; read-out: HSV-2, 50% effective concentration, EC50): 300 nM |
